# Test results taken from ChEMBL document CHEMBL4308841, “Synthesis, in vitro antiproliferative activity, and kinase inhibitory effects of pyrazole-containing diarylureas and diarylamides” (Eur J Med Chem, 2018).
# Assays:
# HOP-62 [1] = assay: Growth inhibition of human HOP62 cells assessed as cell growth at 0.1 uM incubated for 48 hrs by sulforhodamine B assay relative to control; assay type: functional; settings: HOP-62, 48 h, read-out: Activity
# OVCAR-5 = assay: Growth inhibition of human OVCAR5 cells assessed as cell growth at 1 uM incubated for 48 hrs by sulforhodamine B assay relative to control; assay type: functional; settings: OVCAR-5, 48 h, read-out: Activity
# SK-MEL-5 = assay: Growth inhibition of human SK-MEL-5 cells assessed as cell growth at 1 uM incubated for 48 hrs by sulforhodamine B assay relative to control; assay type: functional; settings: SK-MEL-5, 48 h, read-out: Activity
# HCC 2998 [2] = assay: Growth inhibition of human HCC2998 cells assessed as cell growth at 1 uM incubated for 48 hrs by sulforhodamine B assay relative to control; assay type: functional; settings: HCC 2998, 48 h, read-out: Activity
# HCC 2998 [3] = assay: Growth inhibition of human HCC2998 cells incubated for 48 hrs by sulforhodamine B assay; assay type: functional, cell-based; settings: HCC 2998, 48 h
# HCC 2998 [4] = assay: Growth inhibition of human HCC2998 cells assessed as cell growth at 0.1 uM incubated for 48 hrs by sulforhodamine B assay relative to control; assay type: functional; settings: HCC 2998, 48 h, read-out: Activity
# MCF7 = assay: Growth inhibition of human MCF7 cells assessed as cell growth at 0.1 uM incubated for 48 hrs by sulforhodamine B assay relative to control; assay type: functional; settings: MCF7, 48 h, read-out: Activity
# DU-145 = assay: Growth inhibition of human DU145 cells assessed as cell growth at 100 uM incubated for 48 hrs by sulforhodamine B assay relative to control; assay type: functional; settings: DU-145, 48 h, read-out: Activity
# BT-549 = assay: Growth inhibition of human BT549 cells assessed as cell growth at 0.01 uM incubated for 48 hrs by sulforhodamine B assay relative to control; assay type: functional; settings: BT-549, 48 h, read-out: Activity
# RXF 393 = assay: Growth inhibition of human RXF393 cells assessed as cell growth at 1 uM incubated for 48 hrs by sulforhodamine B assay relative to control; assay type: functional; settings: RXF 393, 48 h, read-out: Activity
# SK-OV-3 = assay: Growth inhibition of human SKOV3 cells assessed as cell growth at 1 uM incubated for 48 hrs by sulforhodamine B assay relative to control; assay type: functional; settings: SK-OV-3, 48 h, read-out: Activity
# TK-10 = assay: Growth inhibition of human TK10 cells assessed as cell growth at 10 uM incubated for 48 hrs by sulforhodamine B assay relative to control; assay type: functional; settings: TK-10, 48 h, read-out: Activity
# M14 = assay: Growth inhibition of human M14 cells assessed as cell growth at 1 uM incubated for 48 hrs by sulforhodamine B assay relative to control; assay type: functional; settings: M14, 48 h, read-out: Activity
# CAKI-1 = assay: Growth inhibition of human Caki1 cells incubated for 48 hrs by sulforhodamine B assay; assay type: functional, cell-based; settings: CAKI-1, 48 h
# NCI/ADR-RES = assay: Growth inhibition of human NCI/ADR-RES cells assessed as cell growth at 1 uM incubated for 48 hrs by sulforhodamine B assay relative to control; assay type: functional; settings: read-out: Activity
# SF-268 = assay: Growth inhibition of human SF268 cells incubated for 48 hrs by sulforhodamine B assay; assay type: functional, cell-based; settings: SF-268, 48 h
# HT-29 = assay: Growth inhibition of human HT-29 cells assessed as cell growth at 10 uM incubated for 48 hrs by sulforhodamine B assay relative to control; assay type: functional; settings: HT-29, 48 h, read-out: Activity
# COLO 205 [5] = assay: Growth inhibition of human COLO205 cells assessed as cell growth at 100 uM incubated for 48 hrs by sulforhodamine B assay relative to control; assay type: functional; settings: COLO 205, 48 h, read-out: Activity
# NCI-H226 = assay: Growth inhibition of human NCI-H226 cells assessed as cell growth at 100 uM incubated for 48 hrs by sulforhodamine B assay relative to control; assay type: functional; settings: NCI-H226, 48 h, read-out: Activity
# OVCAR-8 [6] = assay: Growth inhibition of human OVCAR8 cells assessed as cell growth at 0.1 uM incubated for 48 hrs by sulforhodamine B assay relative to control; assay type: functional; settings: OVCAR-8, 48 h, read-out: Activity
# KM12 = assay: Growth inhibition of human KM12 cells assessed as cell growth at 1 uM incubated for 48 hrs by sulforhodamine B assay relative to control; assay type: functional; settings: KM12, 48 h, read-out: Activity
# UACC-257 = assay: Growth inhibition of human UACC257 cells assessed as cell growth at 0.01 uM incubated for 48 hrs by sulforhodamine B assay relative to control; assay type: functional; settings: UACC-257, 48 h, read-out: Activity
# SN12C = assay: Growth inhibition of human SN12C cells assessed as cell growth at 100 uM incubated for 48 hrs by sulforhodamine B assay relative to control; assay type: functional; settings: read-out: Activity
# HL-60(TB) = assay: Growth inhibition of human HL-60(TB) cells assessed as cell growth at 1 uM incubated for 48 hrs by sulforhodamine B assay relative to control; assay type: functional; settings: HL-60, 48 h, read-out: Activity
# COLO 205 [7] = assay: Growth inhibition of human COLO205 cells assessed as cell growth at 0.1 uM incubated for 48 hrs by sulforhodamine B assay relative to control; assay type: functional; settings: COLO 205, 48 h, read-out: Activity
# COLO 205 [8] = assay: Growth inhibition of human COLO205 cells assessed as cell growth at 1 uM incubated for 48 hrs by sulforhodamine B assay relative to control; assay type: functional; settings: COLO 205, 48 h, read-out: Activity
# HOP-62 [9] = assay: Growth inhibition of human HOP62 cells assessed as cell growth at 1 uM incubated for 48 hrs by sulforhodamine B assay relative to control; assay type: functional; settings: HOP-62, 48 h, read-out: Activity
# OVCAR-8 [10] = assay: Growth inhibition of human OVCAR8 cells assessed as cell growth at 100 uM incubated for 48 hrs by sulforhodamine B assay relative to control; assay type: functional; settings: OVCAR-8, 48 h, read-out: Activity
# A498 = assay: Growth inhibition of human A498 cells assessed as cell growth at 0.1 uM incubated for 48 hrs by sulforhodamine B assay relative to control; assay type: functional; settings: A498, 48 h, read-out: Activity
# A549 = assay: Growth inhibition of human A549/ATCC cells assessed as cell growth at 0.1 uM incubated for 48 hrs by sulforhodamine B assay relative to control; assay type: functional; settings: A549, 48 h, read-out: Activity
# UO-31 = assay: Growth inhibition of human UO31 cells assessed as cell growth at 0.01 uM incubated for 48 hrs by sulforhodamine B assay relative to control; assay type: functional; settings: UO-31, 48 h, read-out: Activity
# CCRF-CEM = assay: Growth inhibition of human CCRF-CEM cells assessed as cell growth at 0.01 uM incubated for 48 hrs by sulforhodamine B assay relative to control; assay type: functional; settings: read-out: Activity
# [11] = read-out: LC50 (the source's name)
# [12] = read-out: pLC50 (the source's name) (converted)
structure (smiles),measurement,setting,value
COc1cc(Cl)cc(-c2nn(-c3cccc(NC(=O)c4cccc(C(F)(F)F)c4)c3)cc2-c2ccncc2)c1,growth at 0.1 µM,HOP-62 [1],101%
same,growth at 1 µM,OVCAR-5,96%
same,growth at 1 µM,SK-MEL-5,57%
same,growth at 1 µM,HCC 2998 [2],103%
same,GI50,HCC 2998 [3]; read-out: GI50,5.56 µM
same,CC50,HCC 2998 [3]; [11],> 100 µM
same,TGI,HCC 2998 [3]; read-out: TGI,> 100 µM
same,GI50,HCC 2998 [3]; read-out: pGI50 (converted),6.61 µM
same,CC50,HCC 2998 [3]; [12],> 100 µM
same,TGI,HCC 2998 [3]; read-out: pTGI (converted),> 100 µM
same,growth at 0.1 µM,HCC 2998 [4],104%
same,growth at 0.1 µM,MCF7,92%
same,growth at 100 µM,DU-145,50%
same,growth at 0.01 µM,BT-549,108%
same,growth at 1 µM,RXF 393,53%
same,growth at 1 µM,SK-OV-3,99%
same,growth at 10 µM,TK-10,72.7%
same,growth at 1 µM,M14,83%
same,GI50,CAKI-1; read-out: GI50,3.58 µM
same,CC50,CAKI-1; [11],> 100 µM
same,TGI,CAKI-1; read-out: TGI,> 100 µM
same,GI50,CAKI-1; read-out: pGI50 (converted),3.89 µM
same,CC50,CAKI-1; [12],> 100 µM
same,TGI,CAKI-1; read-out: pTGI (converted),> 100 µM
same,growth at 1 µM,NCI/ADR-RES,89%
same,GI50,SF-268; read-out: GI50,> 100 µM
same,CC50,SF-268; [11],> 100 µM
same,TGI,SF-268; read-out: TGI,> 100 µM
same,GI50,SF-268; read-out: pGI50 (converted),> 100 µM
same,CC50,SF-268; [12],> 100 µM
same,TGI,SF-268; read-out: pTGI (converted),> 100 µM
same,growth at 10 µM,HT-29,42.5%
same,growth at 100 µM,COLO 205 [5],45%
same,growth at 100 µM,NCI-H226,50%
same,growth at 0.1 µM,OVCAR-8 [6],94%
same,growth at 1 µM,KM12,56%
same,growth at 0.01 µM,UACC-257,91%
same,growth at 100 µM,SN12C,52%
same,growth at 1 µM,HL-60(TB),105%
same,growth at 0.1 µM,COLO 205 [7],101%
same,growth at 1 µM,COLO 205 [8],94%
same,growth at 1 µM,HOP-62 [9],101%
same,growth at 100 µM,OVCAR-8 [10],41%
same,growth at 0.1 µM,A498,52%
same,growth at 0.1 µM,A549,93%
same,growth at 0.01 µM,UO-31,58%
same,growth at 0.01 µM,CCRF-CEM,96%
